In patent publication US20030129222A1, “Liposomal imexon” (priority 2000, published 2003):
pIC50: −log10 of the molar value.

What was measured:
[1] = tested on: transplanted syngeneic tumors; conditions: rodents; cited from earlier work
[2] = cited from earlier work
[3] = tested on: human lymphoma, melanoma, and prostate cancer cell lines; conditions: cited from earlier work
L1210 leukemia, Mdr = test: Cytotoxicity in tumor cell culture, MTT assay; type: cell-based, murine; conditions: Mus musculus, L1210; MTT assay, multidrug-resistant; read-out: IC50 against human mouse tumors, L1210 leukemia Mdr
Outline: (§1)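 N-substituted 2-cyanoaziridine-1-carboxamides were tested against a panel of human tumor lines and murine leukemia cells. L1210 Mdr is a murine multidrug-resistant, P-glycoprotein-positive leukemia line.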

L1210 leukemia, Sens = test: Cytotoxicity in tumor cell culture, MTT assay; type: cell-based, murine; conditions: Mus musculus, L1210; MTT assay; read-out: IC50 against human mouse tumors, L1210 leukemia Sens
Outline: as §1

MCF7 breast, Sens = test: Cytotoxicity in tumor cell culture, SRB assay; type: cell-based, human; conditions: Homo sapiens, MCF7; read-out: IC50 against human mouse tumors, MCF7 breast Sens
Outline: as §1

A-549 lung = test: Cytotoxicity in tumor cell culture, SRB assay; type: cell-based, human; conditions: Homo sapiens, A549; read-out: IC50 against human mouse tumors, A-549 lung
Outline: as §1

A375 melan = test: Cytotoxicity in tumor cell culture, SRB assay; type: cell-based, human; conditions: Homo sapiens, A-375; read-out: IC50 against human mouse tumors, A375 melan
Outline: as §1

[4] = tested on: MCF7 breast, Dox (doxorubicin-resistant); test: Cytotoxicity in tumor cell culture, SRB assay; type: cell-based, human; conditions: Homo sapiens, MCF7; doxorubicin-resistant; read-out: IC50 against human mouse tumors, MCF7 breast Dox
Outline: as §1

OVCAR3 ovarian = test: Cytotoxicity in tumor cell culture, SRB assay; type: cell-based, human; conditions: Homo sapiens, OVCAR-3; read-out: IC50 against human mouse tumors, OVCAR3 ovarian
Outline: as §1

[5] = tested on: 8226 myeloma, Sens (drug-sensitive); test: Cytotoxicity in tumor cell culture, SRB assay; type: cell-based, human; conditions: Homo sapiens; drug-sensitive line; read-out: IC50 against human mouse tumors, 8226 myeloma Sens
Outline: as §1

[6] = tested on: MCF7 breast, mitox (mitoxantrone-resistant); test: Cytotoxicity in tumor cell culture, SRB assay; type: cell-based, human; conditions: Homo sapiens, MCF7; mitoxantrone-resistant; read-out: IC50 against human mouse tumors, MCF7 breast mitox
Outline: as §1

[7] = tested on: 8226 myeloma, Res (imexon-resistant); test: Cytotoxicity in tumor cell culture, SRB assay; type: cell-based; conditions: Homo sapiens; line made resistant to imexon; read-out: IC50 against human mouse tumors, 8226 myeloma Res
Outline: as §1

WiDr colon, Sens = test: Cytotoxicity in tumor cell culture, SRB assay; type: cell-based; conditions: Homo sapiens, WiDr; read-out: IC50 against human mouse tumors, WiDr colon Sens
Outline: as §1

WiDr colon, res = test: Cytotoxicity in tumor cell culture, SRB assay; type: cell-based; conditions: Homo sapiens, WiDr; multidrug-resistant; read-out: IC50 against human mouse tumors, WiDr colon res
Outline: as §1

fresh human tumor cells = conditions: cited from earlier work
[8] = tested on: panel of tumor cells in culture; test: Panel of tumor cell cultures (all lines of Table 3); type: cell-based, human, murine
From the text: A set of twenty 2-cyanoaziridine-1-carboxamides was synthesized from 2-cyanoaziridine and appropriate isocyanates. […] It is contemplated that one or more of these 2-cyanoaziridine-1-carboxamides derivatives may be used in combination with a lipid and/or another agent.

[9] = tested on: Breast (cloned fresh human tumors); test: Human tumor cloning assay, [3H]thymine uptake by tumor-colony-forming cells; type: cell-based; conditions: No. tested 4
Experimental: (§2) Assays of antitumor agents against fresh human tumor-colony-forming cells provide results that predict better the responses obtained in treating cancer patients than those obtained with long established human cell lines (Salmon et al., 1981). For this reason, the N-phenyl derivative 13 was tested against a variety of fresh human tumors obtained at the Arizona Cancer Center using established methodology (Salmon and Hersh, 1994).

[10] = tested on: Myeloma (cloned fresh human tumors); test: as above; type: cell-based; conditions: No. tested 3
Experimental: as §2

[11] = tested on: Ovary (cloned fresh human tumors); test: as above; type: cell-based; conditions: No. tested 12
Experimental: as §2

[12] = tested on: Melanoma (cloned fresh human tumors); test: as above; type: cell-based; conditions: No. tested 10
Experimental: as §2

[13] = tested on: Other Gynecologic (cloned fresh human tumors); test: as above; type: cell-based; conditions: No. tested 4
Experimental: as §2

[14] = tested on: Stomach (cloned fresh human tumors); test: as above; type: cell-based; conditions: No. tested 1
Experimental: as §2

[15] = tested on: Sarcoma (cloned fresh human tumors); test: as above; type: cell-based; conditions: Sarcoma, No. tested 8
Experimental: as §2

[16] = tested on: Lung (cloned fresh human tumors); test: as above; type: cell-based; conditions: No. tested 2
Experimental: as §2

In the case of `N=C1NC(=O)N2CC12` (stereo not drawn) [Imexon, 4-imino-1,3-diazabicyclo[3.1.0]hexan-2-one], the “activity against transplanted syngeneic tumors” value [1] is given as “active”, the tolerability ([2]; Phase I) is given as “well-tolerated” and the clinical response ([2]; patients with lung cancer, breast cancer, or liver cancer) is given as “objective responses or stabilization of the disease”. For the same molecule, the “activity against human tumor cell lines in SCID mice” value [3] was “active”, the pIC50 (L1210 leukemia, Mdr) was 3.32 and the pIC50 (L1210 leukemia, Sens) was 3.21. It also gave a pIC50 (MCF7 breast, Sens) of under 4.74, a pIC50 (A-549 lung) of under 4.14 and a pIC50 (A375 melan) of 3.49. It also gave a pIC50 [4] of under 4.74, a pIC50 (OVCAR3 ovarian) of 3.19 and a pIC50 [5] of 4.77. For the same molecule, the pIC50 [6] was under 4.74, the pIC50 [7] was 3.94 and the pIC50 (WiDr colon, Sens) was under 4.14. For the same molecule, the pIC50 (WiDr colon, res) was under 4.14, the “cytotoxicity in clonogenic assay” value (fresh human tumor cells) was “selectively cytotoxic to multiple myeloma” and the “selectivity among tumor cell types” value [8] was “selective for multiple myeloma”. The no. sensitive ([9]; Imexon 0.1 μM) was 0, the no. sensitive ([9]; Imexon 1.0 μM) was 2 and the no. sensitive ([9]; Imexon 10 μM) was 3. It also gave a no. sensitive ([10]; Imexon 0.1 μM) of 3, a no. sensitive ([10]; Imexon 1.0 μM) of 3 and a no. sensitive ([10]; Imexon 10 μM) of 3. The no. sensitive ([11]; Imexon 0.1 μM) was 4, the no. sensitive ([11]; Imexon 1.0 μM) was 3/11 and the no. sensitive ([11]; Imexon 10 μM) was 8. For the same molecule, the no. sensitive ([12]; Imexon 0.1 μM) was 3/5, the no. sensitive ([12]; Imexon 1.0 μM) was 4 and the no. sensitive ([12]; Imexon 10 μM) was 8. The no. sensitive ([13]; Imexon 0.1 μM) was 0, the no. sensitive ([13]; Imexon 1.0 μM) was 0 and the no. sensitive ([13]; Imexon 10 μM) was 1. For the same molecule, the no. sensitive ([14]; Imexon 0.1 μM) was 0, the no. sensitive ([14]; Imexon 1.0 μM) was 0 and the no. sensitive ([14]; Imexon 10 μM) was 1. The no. sensitive ([15]; Imexon 0.1 μM) was 0/2, the no. sensitive ([15]; Imexon 1.0 μM) was 2 and the no. sensitive ([15]; Imexon 10 μM) was 5. The no. sensitive ([16]; Imexon 0.1 μM) was 0, the no. sensitive ([16]; Imexon 1.0 μM) was 0 and the no. sensitive ([16]; Imexon 10 μM) was 2.
